US6737383B1, “Herbicidal oxadiazolidines” (priority 1999, dated 2004)

Tests used:
bedstraw = assay: Test B pre/postemergence bedstraw; format: in vivo, Galium aparine
How it was run: (§1)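 Herbicidal effect was estimated by eye on a ten-point control scale after plants spent twelve to sixteen days in a greenhouse following soil or foliar treatment. Foliar sprays targeted plants at one to four leaves; all doses were formulated in a non-phytotoxic solvent with surfactant.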

surinam grass = assay: Test B pre/postemergence surinam grass; format: in vivo, Brachiaria decumbens; conditions: for B. signalgrass plant response rating (0 to 10 scale): 0 is no effect
How it was run: as §1

wild oat = assay: Test B pre/postemergence wild oat; format: in vivo, Avena fatua; conditions: for Plant response rating, Wild oats: Rate 500 g/ha
How it was run: as §1

bamyardgrass = assay: Test B flood test barnyardgrass; format: in vivo, Echinochloa crus-galli
How it was run: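 Flood test on plants grown to the 2-leaf stage; treated plants kept in greenhouse twelve to sixteen days, then visually rated against controls on a 0 (no effect) to 10 (complete control) scale.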

[1] = Preemergence, Rate 31 g/ha, visual rating, scale 0 to 10 (0 no effect, 10 complete control)
[2] = Preemergence, Rate 250 g/ha, scale 0 to 10, 0 is no effect, 10 is complete control
[3] = Rate 31 g/ha, Postemergence, scale 0 to 10
[4] = Rate 62 g/ha, Postemergence, scale of 0 to 10 where 0 is no effect and 10 is complete control
[5] = Rate 125 g/ha, Postemergence, scale 0 to 10
[6] = Preemergence, Rate 62 g/ha, scale of 0 to 10 where 0 is no effect and 10 is complete control
[7] = Preemergence, Rate 125 g/ha, 10 is complete control
[8] = Rate 125 g/ha, Postemergence, scale 0 (no effect) to 10 (complete control)
[9] = Rate 250 g/ha, Postemergence, scale 0 to 10, 0 is no effect, 10 is complete control
[10] = Rate 62 g/ha, headed Pre-emergence (flood test species), scale 0 to 10 (0 no effect, 10 complete control)
[11] = Rate 125 g/ha, Pre-emergence, flood test species, scale 0 to 10 where 0 is no effect and 10 is complete control
[12] = Rate 250 g/ha, Pre-emergence, flood-test species, scale 0 to 10, 0 is no effect, 10 is complete control
[13] = Preemergence, Rate 500 g/ha, scale of 0 to 10 where 0 is no effect and 10 is complete control
[14] = Rate 500 g/ha, Postemergence, scale 0 to 10
[15] = Rate 500 g/ha, Postemergence, scale 0 to 10, 0 no effect, 10 complete control
[16] = Preemergence, scale of 0 to 10 where 0 is no effect and 10 is complete control
[17] = Rate 500 g/ha, Pre-emergence, flood test species, scale 0 to 10 (0 no effect, 10 complete control)
[18] = Rate 125 g/ha, Preemergence, scale of 0 to 10 where 0 is no effect and 10 is complete control
[19] = Preemergence, Rate 250 g/ha, scale of 0 to 10 where 0 is no effect and 10 is complete control

For Cc1ccccc1-n1c(=O)on(C(=O)N(c2ccc(F)cc2)C2CCC2)c1=O [Compound 200], the “Bedstraw plant response rating” value (bedstraw; [1]) was 0, the “Bedstraw plant response rating” value (bedstraw; [2]) was 0 and the “Bedstraw plant response rating” value (bedstraw; [3]) was 0. The “Bedstraw plant response rating” value (bedstraw; [4]) was 0, the “Bedstraw plant response rating” value (bedstraw; [5]) was 0 and the “Plant response rating (0 to 10; 0 is no effect, 10 is complete control), Bedstraw” value (bedstraw; Rate 250 g/ha, Postemergence) was 0. For the same compound, the “B. signalgrass plant response rating” value (surinam grass; [1]) was 0, the “B. signalgrass plant response rating” value (surinam grass; [6]) was 0 and the “B. signalgrass plant response rating (0 to 10 scale)” value (surinam grass; [7]) was 0. For the same compound, the “B. signalgrass plant response rating” value (surinam grass; [2]) was 0, the “B. signalgrass plant response rating” value (surinam grass; [3]) was 0 and the “B. signalgrass plant response rating” value (surinam grass; [4]) was 0. The “B. signalgrass plant response rating” value (surinam grass; [8]) was 0, the “Plant response rating, B. signalgrass” value (surinam grass; [9]) was 0 and the “Wild oats plant response rating” value (wild oat; [1]) was 0. The “Wild oats plant response rating” value (wild oat; [6]) was 0, the “Wild oats plant response rating” value (wild oat; [2]) was 0 and the “Wild oats plant response rating” value (wild oat; [4]) was 0. The “Wild oats plant response rating” value (wild oat; [5]) was 0, the “Plant response rating (0 to 10; 0 is no effect, 10 is complete control), Wild oats” value (wild oat; Rate 250 g/ha, Postemergence) was 0 and the “Barnyardgrass plant response rating” value (bamyardgrass; Rate 31 g/ha, Pre-emergence section (flood test species), scale 0 to 10) was 0. The “Barnyardgrass plant response rating” value (bamyardgrass; [10]) was 0, the “Barnyardgrass plant response rating” value (bamyardgrass; [11]) was 0 and the “Barnyardgrass plant response rating” value (bamyardgrass; [12]) was 0.
With CC(C)N(C(=O)n1oc(=O)n(Cc2ccco2)c1=O)c1ccc(Cl)cc1 [Compound 206] the “Bedstraw plant response rating” value (bedstraw; [6]) was 0, the “Bedstraw plant response rating (0 to 10 scale)” value (bedstraw; Preemergence, Rate 125 g/ha, 0 is no effect, 10 is complete control) was 0 and the “Bedstraw plant response rating” value (bedstraw; [2]) was 0. The “Plant response rating, Bedstraw” value (bedstraw; [13]) was 0, the “Bedstraw plant response rating” value (bedstraw; [4]) was 0 and the “Bedstraw plant response rating” value (bedstraw; [5]) was 0. The “Plant response rating (0 to 10; 0 is no effect, 10 is complete control), Bedstraw” value (bedstraw; Rate 250 g/ha, Postemergence) was 0, the “Bedstraw plant response rating” value (bedstraw; [14]) was 0 and the “B. signalgrass plant response rating” value (surinam grass; [6]) was 0. The “B. signalgrass plant response rating (0 to 10 scale)” value (surinam grass; [7]) was 0, the “B. signalgrass plant response rating” value (surinam grass; [2]) was 0 and the “Plant response rating, B. signalgrass” value (surinam grass; [13]) was 0. The “B. signalgrass plant response rating” value (surinam grass; [4]) was 0, the “B. signalgrass plant response rating” value (surinam grass; [8]) was 0 and the “Plant response rating, B. signalgrass” value (surinam grass; [9]) was 0. The “B. signalgrass plant response rating” value (surinam grass; [15]) was 0, the “Wild oats plant response rating” value (wild oat; [6]) was 0 and the “Wild oats plant response rating” value (wild oat; [2]) was 0. For the same compound, the “Plant response rating, Wild oats” value (wild oat; [16]) was 0, the “Wild oats plant response rating” value (wild oat; [4]) was 0 and the “Wild oats plant response rating” value (wild oat; [5]) was 0. The “Plant response rating (0 to 10; 0 is no effect, 10 is complete control), Wild oats” value (wild oat; Rate 250 g/ha, Postemergence) was 0, the “Barnyardgrass plant response rating” value (bamyardgrass; [10]) was 0 and the “Barnyardgrass plant response rating” value (bamyardgrass; [11]) was 0. The “Barnyardgrass plant response rating” value (bamyardgrass; [12]) was 0 and the “Barnyardgrass plant response rating” value (bamyardgrass; [17]) was 0.
CC(C)N(C(=O)n1oc(=O)n(CC=Cc2ccccc2)c1=O)c1ccc(F)cc1 [Compound 210] was tested, and the “Bedstraw plant response rating” value (bedstraw; [6]) was 0, the “Bedstraw plant response rating” value (bedstraw; [2]) was 0 and the “Plant response rating, Bedstraw” value (bedstraw; [13]) was 0. For the same compound, the “Bedstraw plant response rating” value (bedstraw; [4]) was 0, the “Bedstraw plant response rating” value (bedstraw; [5]) was 2 and the “Bedstraw plant response rating” value (bedstraw; [18]) was 0. For the same compound, the “Plant response rating (0 to 10; 0 is no effect, 10 is complete control), Bedstraw” value (bedstraw; Rate 250 g/ha, Postemergence) was 4, the “B. signalgrass plant response rating” value (surinam grass; [6]) was 0 and the “B. signalgrass plant response rating” value (surinam grass; [2]) was 0. For the same compound, the “Plant response rating, B. signalgrass” value (surinam grass; [13]) was 0, the “B. signalgrass plant response rating” value (surinam grass; [4]) was 0 and the “B. signalgrass plant response rating” value (surinam grass; [8]) was 0. For the same compound, the “B. signalgrass plant response rating” value (surinam grass; [18]) was 0, the “Plant response rating (0 to 10; 0 is no effect, 10 is complete control), B. signalgrass” value (surinam grass; Rate 250 g/ha, Postemergence) was 0 and the “B. signalgrass plant response rating” value (surinam grass; [15]) was 0. For the same compound, the “Wild oats plant response rating” value (wild oat; [6]) was 0, the “Wild oats plant response rating” value (wild oat; [2]) was 2 and the “Plant response rating, Wild oats” value (wild oat; [16]) was 2. For the same compound, the “Wild oats plant response rating” value (wild oat; [4]) was 0, the “Wild oats plant response rating” value (wild oat; [5]) was 0 and the “Wild oats plant response rating” value (wild oat; [18]) was 0. For the same compound, the “Plant response rating (0 to 10; 0 is no effect, 10 is complete control), Wild oats” value (wild oat; Rate 250 g/ha, Postemergence) was 0, the “Barnyardgrass plant response rating” value (bamyardgrass; [10]) was 0 and the “Barnyardgrass plant response rating” value (bamyardgrass; [11]) was 0. The “Barnyardgrass plant response rating” value (bamyardgrass; [12]) was 0 and the “Barnyardgrass plant response rating” value (bamyardgrass; [17]) was 0.
For CCOC(=O)C=CCn1c(=O)on(C(=O)N(c2ccc(F)cc2)C(C)C)c1=O [Compound 214], the “Bedstraw plant response rating” value (bedstraw; [6]) was 0, the “Bedstraw plant response rating” value (bedstraw; [19]) was 0 and the “Plant response rating, Bedstraw” value (bedstraw; [13]) was 0. For the same compound, the “Bedstraw plant response rating” value (bedstraw; [4]) was 0, the “Bedstraw plant response rating” value (bedstraw; [5]) was 0 and the “Bedstraw plant response rating” value (bedstraw; [18]) was 0. The “Plant response rating (0 to 10; 0 is no effect, 10 is complete control), Bedstraw” value (bedstraw; Rate 250 g/ha, Postemergence) was 2, the “Bedstraw plant response rating” value (bedstraw; [14]) was 8 and the “B. signalgrass plant response rating” value (surinam grass; [6]) was 0. For the same compound, the “B. signalgrass plant response rating” value (surinam grass; [2]) was 0, the “Plant response rating, B. signalgrass” value (surinam grass; [13]) was 0 and the “B. signalgrass plant response rating” value (surinam grass; [4]) was 0. The “B. signalgrass plant response rating” value (surinam grass; [8]) was 0, the “B. signalgrass plant response rating” value (surinam grass; [18]) was 0 and the “Plant response rating (0 to 10; 0 is no effect, 10 is complete control), B. signalgrass” value (surinam grass; Rate 250 g/ha, Postemergence) was 0. For the same compound, the “B. signalgrass plant response rating” value (surinam grass; [15]) was 0, the “Wild oats plant response rating” value (wild oat; [6]) was 0 and the “Wild oats plant response rating” value (wild oat; [19]) was 0. For the same compound, the “Plant response rating, Wild oats” value (wild oat; [16]) was 0, the “Wild oats plant response rating” value (wild oat; [4]) was 0 and the “Wild oats plant response rating” value (wild oat; [5]) was 0. For the same compound, the “Wild oats plant response rating” value (wild oat; [18]) was 0, the “Plant response rating (0 to 10; 0 is no effect, 10 is complete control), Wild oats” value (wild oat; Rate 250 g/ha, Postemergence) was 0 and the “Barnyardgrass plant response rating” value (bamyardgrass; [10]) was 0. For the same compound, the “Barnyardgrass plant response rating” value (bamyardgrass; [11]) was 0, the “Barnyardgrass plant response rating” value (bamyardgrass; [12]) was 0 and the “Barnyardgrass plant response rating” value (bamyardgrass; [17]) was 0.
COC(=O)Cn1c(=O)on(C(=O)N(c2ccc(F)cc2)C(C)C)c1=O [Compound 215] was tested, and the “Bedstraw plant response rating” value (bedstraw; [6]) was 0, the “Bedstraw plant response rating” value (bedstraw; [19]) was 0 and the “Plant response rating, Bedstraw” value (bedstraw; [13]) was 0. For the same compound, the “Bedstraw plant response rating” value (bedstraw; [4]) was 0, the “Bedstraw plant response rating” value (bedstraw; [5]) was 0 and the “Bedstraw plant response rating” value (bedstraw; [18]) was 0. The “Plant response rating (0 to 10; 0 is no effect, 10 is complete control), Bedstraw” value (bedstraw; Rate 250 g/ha, Postemergence) was 6, the “Bedstraw plant response rating” value (bedstraw; [14]) was 8 and the “B. signalgrass plant response rating” value (surinam grass; [6]) was 0. The “B. signalgrass plant response rating” value (surinam grass; [2]) was 2, the “Plant response rating, B. signalgrass” value (surinam grass; [13]) was 2 and the “B. signalgrass plant response rating” value (surinam grass; [4]) was 0. The “B. signalgrass plant response rating” value (surinam grass; [8]) was 0, the “B. signalgrass plant response rating” value (surinam grass; [18]) was 0 and the “Plant response rating (0 to 10; 0 is no effect, 10 is complete control), B. signalgrass” value (surinam grass; Rate 250 g/ha, Postemergence) was 3. For the same compound, the “B. signalgrass plant response rating” value (surinam grass; [15]) was 3, the “Wild oats plant response rating” value (wild oat; [6]) was 0 and the “Wild oats plant response rating” value (wild oat; [19]) was 2. For the same compound, the “Plant response rating, Wild oats” value (wild oat; [16]) was 2, the “Wild oats plant response rating” value (wild oat; [4]) was 0 and the “Wild oats plant response rating” value (wild oat; [5]) was 0. For the same compound, the “Wild oats plant response rating” value (wild oat; [18]) was 0, the “Plant response rating (0 to 10; 0 is no effect, 10 is complete control), Wild oats” value (wild oat; Rate 250 g/ha, Postemergence) was 2 and the “Barnyardgrass plant response rating” value (bamyardgrass; [10]) was 0. The “Barnyardgrass plant response rating” value (bamyardgrass; [11]) was 0, the “Barnyardgrass plant response rating” value (bamyardgrass; [12]) was 0 and the “Barnyardgrass plant response rating” value (bamyardgrass; [17]) was 0.
